Where a SMILES comes first, the peptide text is derived from it. Bridges are numbered along the chain shown (N, C = ends).
Assay: SS bond reduction by DTT monitored by 1H NMR
Assay type: physicochemical
Conditions: 1.7 mM protein, twofold excess of DTT, 15 °C; for DTT: Conversion rate / DTT: Elapsed time to steady state: pH 7; for DTT: t1/2 of reduction: pH 7, calculated from k1 (Eq. 12); for DTT: k1: pH 7, parameter estimation (phase 1 data)
Method: An appropriate reduction protocol was required to unambiguously determine the 3D structures of the above‐introduced pure reduced states. Thus, in agreement with the above discussion, only mild conditions (15 °C and twofold molar excess of […]) were used for the reduction of the four different miniproteins. Determining the structural properties and reduction rates under the same conditions allowed us to elucidate the basis of the observed differences in the reduction rates. […] It appears as if “cutting back” on the α‐helical segment strongly affects the SS bond reducibility, even though the SS bonds of all four models are near the surfaces (Figure 7 A). To our great surprise, we recorded three orders of magnitude differences between the reduction rate constants (Table 3). Whereas the reduction of E2_SS is still extremely fast, tE2_SS/1/2 <≈1 min, that of E5_SS occurs on the timescale of minutes: tE5_SS/1/2 ≈14 min. […] The conversion rate was close to complete for the shorter peptide of E2_SS, whereas the reduction of E19_SS was only 88 % complete. The kinetic parameters of all four model proteins were determined by using a twofold molar excess of DTT, at pH 7, and T=15 °C.
Monitoring reduction kinetics: Peptide samples were prepared between 0.8 and 1.8 mM in 50 mM NaH2PO4–Na2HPO4 buffer (600 μL, pH 6.95), with 10 % D2O. A 0.1 M solution of NaOH was used to set the pH to 7. Sodium trimethylsilylpropanesulfonate (DSS) was added as the internal proton reference standard, set to δ=0.0 ppm under all conditions. ^1H,^1H 2D homonuclear spectra were recorded for the oxidized peptide; thereafter, upon the addition of a different excess of 0.5 M TCEP or DTT, reduction was observed by recording a series of 1D ^1H spectra (ns=64 or 128 scans). Finally, at the end point, ^1H,^1H homonuclear 2D spectra were recorded on the reduced peptide. Data sets were processed by using TopSpin 3.2 software. The conversion rate was determined by using the relative integral of the Trp Hϵ1 signal in the oxidized (IntOX) and reduced (IntRED) form. Each integral was normalized to the integral of DSS. The concentrations were determined by the ratio of the oxidized and reduced integrals and the initial protein concentration.
Parameter estimation: Kinetic parameter estimation was based on the integral of selected NMR signals considered to be proportional to the concentration of the relevant species. The mechanism taken into account is that given by Equations (8), (9), (10), (11):(8) SS+Red→k12SH+Ox (9) 2SH+O2→k2SS (10) [drawing 1] (11) [drawing 2]
in which SS is the […] model protein with an intramolecular S−S bond; 2 SH is the same protein with the S−S bond reduced to two −SH groups; and the symbol Ø means a different phase from that of the reaction mixture, that is, the polymer aggregate as a sink in the first case and the gas phase as a source in the second case.
For parameter estimation, the COPASI 4.16 (Build 104) Biochemical System Simulator software (http://copasi.org/) was used, with the parameter estimation option of the Levenberg–Marquardt method.
To determine the half‐life and initial concentration of the SS species, a kinetic analysis of the temporal evolution of the reactions was performed. […] From the kinetic analysis, the initial concentration of oxygen ([O2]0) could also be estimated, except for one case in which the uncertainty of this parameter was very large, due to the lack of sufficient experimental data.
Because reduction follows second‐order kinetics, the half‐life (t 1/2) of model proteins also depends on the actual concentration of the RA in the reaction mixture [Eq. (12):(12) t1/2=1/k1(cRed,0-cSS,0)ln2-cSS,0/cRed,0

Row | Structure (SMILES) | DTT: Conversion rate | DTT: Elapsed time to steady state | DTT: t1/2 of reduction | DTT: k1
1 | CC[C@H](C)[C@@H]1NC(=O)[C@H](Cc2ccc(O)cc2)NC(=O)[C@H](CC(C)C)NC(=O)[C@H](CCCNC(=N)N)NC(=O)[C@H](C(C)C)NC(=O)[C@@H](NC(=O)[C@H](CCC(=O)O)NC(=O)[C@H](CCC(=O)O)NC(=O)[C@H](CCC(=O)O)NC(=O)[C@H](CCSC)NC(=O)[C@H](CCC(N)=O)NC(=O)[C@H](CCCCN)NC(=O)[C@H](CO)NC(=O)[C@H](CC(C)C)NC(=O)[C@@H](N)CC(=O)O)CSSC[C@@H](C(=O)O)NC(=O)[C@@H]2CCCN2C(=O)[C@@H]2CCCN2C(=O)[C@@H]2CCCN2C(=O)[C@H](CCCNC(=N)N)NC(=O)CNC(=O)[C@H](CO)NC(=O)[C@H](CO)NC(=O)[C@@H]2CCCN2C(=O)CNC(=O)CNC(=O)[C@H](CC(=O)O)NC(=O)[C@H](CCCCN)NC(=O)[C@H](CC(C)C)NC(=O)[C@H](Cc2c[nH]c3ccccc23)NC(=O)[C@H](CCC(N)=O)NC1=O [E11_SS] (H-DLSKQMEEECVRLYIQWLKDGGPSSGRPPPC-OH; disulfide 10-31) | ≈84% | 138 h | 27.65 h | 0.00253 M⁻¹ s⁻¹
2 | CC[C@H](C)[C@@H]1NC(=O)[C@H](Cc2ccc(O)cc2)NC(=O)[C@H](CC(C)C)NC(=O)[C@H](CCCNC(=N)N)NC(=O)[C@H](C(C)C)NC(=O)[C@@H](NC(=O)[C@H](CCC(=O)O)NC(=O)[C@H](CCC(=O)O)NC(=O)[C@@H](N)CCC(=O)O)CSSC[C@@H](C(=O)O)NC(=O)[C@@H]2CCCN2C(=O)[C@@H]2CCCN2C(=O)[C@@H]2CCCN2C(=O)[C@H](CCCNC(=N)N)NC(=O)CNC(=O)[C@H](CO)NC(=O)[C@H](CO)NC(=O)[C@@H]2CCCN2C(=O)CNC(=O)CNC(=O)[C@H](CC(=O)O)NC(=O)[C@H](CCCCN)NC(=O)[C@H](CC(C)C)NC(=O)[C@H](Cc2c[nH]c3ccccc23)NC(=O)[C@H](CCC(N)=O)NC1=O [E5_SS] (H-EEECVRLYIQWLKDGGPSSGRPPPC-OH; disulfide 4-25) | 95% | 9 to 10 h | 1.92 h | 0.0363 M⁻¹ s⁻¹
3 | CC[C@H](C)[C@@H]1NC(=O)[C@H](Cc2ccc(O)cc2)NC(=O)[C@H](CC(C)C)NC(=O)[C@H](CCCNC(=N)N)NC(=O)[C@H](C(C)C)NC(=O)[C@@H](N)CSSC[C@@H](C(=O)O)NC(=O)[C@@H]2CCCN2C(=O)[C@@H]2CCCN2C(=O)[C@@H]2CCCN2C(=O)[C@H](CCCNC(=N)N)NC(=O)CNC(=O)[C@H](CO)NC(=O)[C@H](CO)NC(=O)[C@@H]2CCCN2C(=O)CNC(=O)CNC(=O)[C@H](CC(=O)O)NC(=O)[C@H](CCCCN)NC(=O)[C@H](CC(C)C)NC(=O)[C@H](Cc2c[nH]c3ccccc23)NC(=O)[C@H](CCC(N)=O)NC1=O [E2_SS] (H-CVRLYIQWLKDGGPSSGRPPPC-OH; disulfide 1-22) | 100% | 5 h | 1.03 h | 0.0673 M⁻¹ s⁻¹
